Experiments:
[1] = Leaching test: measurement of a leakage (leaching rate); format: biochemical; details: hydrophobic material alone, 37° C., 90 min, mean of three ± SD
Protocol: The leakage (leaching rate) was determined according to the method described by K. Kono et al., Bioconjugate Chem., 2008 19 1040-1048 and evaluated using an EYPC liposome including Pyranine serving as a fluorescent substance and DPX serving as a quencher.
3000 nmol of EYPC dissolved in chloroform was measured and placed in a 10 mL eggplant flask and converted to a thin film by use of a rotary evaporator (BuCHI). 500 μL of a Pyranine solution (Pyranine: 35 mM, DPX: 50 mM, MES: 25 mM, pH 7.4) was added, followed by dispersion with use of an ultrasonic irradiator (USC-J) and passage through a polycarbonate film having a pore size of 100 nm by use of an extruder to obtain a uniform particle size. Using an MES buffer (MES: 25 mM, NaCl: 125 mM, pH 7.4) and a G100 column, an outer water layer was substituted to obtain a dispersion of EYPC liposomes including the fluorescent substance. The concentration of the choline group of the phospholipid was determined by use of the phospholipid C test Wako and was adjusted by use of an MES buffer (MES: 25 mM, NaCl: 125 mM, pH 7.4) in such a way as to obtain 1.0 mmol/L of the phospholipid. […] The DOPE-Chems and DOPE-oleic acid were, respectively, measured in an acetic acid buffer (acetic acid: 25 mM, NaCl: 125 mM).
With respect to other samples, measurement at a pH of 4.0 to 3.0 was carried out by use of an acetic acid buffer.
It will be noted that the leakage was calculated in such a way that in case where the EYPC liposome dispersion alone was used, it was taken as 0% and a value obtained in case where 30 μL of a 10-fold diluted Triton-X100 was added was taken as 100%.
More particularly, the leakage was calculated according to the following equation. In the following equation, a measured fluorescence intensity is represented by L, a fluorescence intensity of a dispersion alone of EYPC liposomes including a fluorescent substance is represented by L0, and a fluorescence intensity in case where Triton-X100 was added is represented by L100. Leakage (%)=(L−L0)/(L100−L0)×100 Fusion Test: Measurement of Fusion (Membrane Fusion)

[2] = test system: RAW cells; assay: Cytosolic delivery of β-gal; format: cell-based; details: 16 to 20 hours incubation, three hours post-incubation; FIG. 21
Protocol: Using PBS passed through a 0.22 μm filter, there was prepared a 1.4 mg/mL of β-gal solution. […] On the day before charge, the RAW cells were spread on a matsunami glass bottom dish and cultured, and the cells were rinsed with PBS immediately before charge. The culture was carried out by use of an incubator (MCO 20 AIC) set at 5% CO2 and 37° C. and a 10% FBS-containing MEM medium. After substitution with 1900 μL of a fresh 10% FBS-containing MEM medium, 100 μL of the respective samples was charged, followed by 16 to 20 hours incubation. The cells were rinsed at least three times with PBS. Thereafter, 2 mL of a fresh 10% FBS-containing MEM medium was added, following by three hours post-incubation. The cells were rinsed with PBS, followed by staining the cells with use of a β-Galactosidase Staining Kit (purchased from Takara Bio Inc.), and observing the cells through a microscope (Axiovert 200M—soft: Axio vision 3.0). The staining was carried out in accordance with the recommendation of the kit.

[3] = test system: RAW cells; assay: Evaluation of cytosolic delivery using a fluorescence-labeled peptide; format: cell-based; details: 14 μg of the fluorescence-labeled peptide/well, overnight, three hours post-incubation; FIG. 19, 20
Protocol: OVA-257-264-Rh was chosen as a model peptide. 140 μg/ml of a fluorescence-labeled peptide solution was prepared by use of PBS passed through a 0.22 μm filter and used for the preparation of a carrier. Cells used were RAW cells, and culture was carried out by use of an incubator (MCO20AIC) set at 5% CO2 and 37° C. The RAW cells were spread on a matsunami glass bottom dish on the day before the charge of the carrier and cultured in a 10% FBS-containing MEM medium.
After rinsing the cells with PBS, the medium was substituted with 1900 μL of a fresh 10% FBS-containing MEM medium, into which 100 μL of the respective samples was charged. Incubation was continued over 16 to 20 hours and the cells were rinsed at least three times with PBS. Thereafter, 2 mL of a fresh 10% FBS-containing MEM medium was added, following by three hours post-incubation. The cells were rinsed with PBS, followed by substitution with a DMEM-without-Phenol-Red medium and observation of the cells through a fluorescence microscope Axiovert 200M—soft: Axio vision 3.0—light source: Fluo Arc

Compound | Hydrophobic material only Leakage (%) ([1]; pH 5.0) | Hydrophobic material only Leakage (%) ([1]; pH 7.4) | staining of cells by β-gal enzymatic activity (cytosolic delivery) [2] | localisation of fluorescence-labeled peptide in cells (cytosolic delivery) [3]
CCCCCCCC(=O)OCC(COC(=O)CCCCCCC)OC(=O)CCCCCCC [Tricaprylin, tricaprylin] | 9.0 ± 1.1 | 6.8 ± 0.9 | – | –
Cc1c(C)c2c(c(C)c1O)CCC(C)(CCCC(C)CCCC(C)CCCC(C)C)O2 (racemic) [α-Tocopherol, DL-α-tocopherol] | 8.8 ± 0.6 | 5.4 ± 0.2 | – | –
CCCOC(=O)c1ccc(O)cc1 [Propyl paraoxybenzoate, propyl paraoxybenzoate] | 7.9 ± 0.1 | 5.4 ± 0.2 | – | –
sorbitan tristearate [SPAN 65] | 13.0 ± 0.3 | 4.2 ± 0.4 | – | –
CCCCCCCCCCCCCCCC(=O)OC[C@H](O)[C@H]1OC(=O)C(O)=C1O [Ascorbyl palmitate] | 9.9 ± 1.0 | 1.7 ± 0.1 | – | –
N[C@@H](Cc1c[nH]cn1)C(=O)O [L-Histidine, L-histidine] | 8.9 ± 0.5 | 6.7 ± 0.4 | – | –
CCCCCCCCCCCCCCCC(=O)OCC(O)CO (stereo not drawn) [Monopalmitin, Glycerol monopalmitate] | 8.1 ± 0.7 | 7.8 ± 2.5 | – | –
CCCCCCCCCCCCCCCCCC(=O)OCC(O)CO (stereo not drawn) [Monostearin, Glycerol monostearate] | 9.6 ± 0.6 | 7.9 ± 1.0 | – | –
CC(C)CCC[C@@H](C)[C@H]1CC[C@H]2[C@@H]3CC=C4C[C@@H](O)CC[C@]4(C)[C@H]3CC[C@]12C [Cholesterol, cholesterol] | 7.6 ± 0.5 | 4.8 ± 0.1 | – | –
CCCCCCCCCCCCCCCCCCCCO [1-Eicosanol] | 8.6 ± 0.5 | 7.6 ± 0.4 | – | –
CCCCCCCCCCCCCCCCCC(=O)OCC(CO)OC(=O)CCCCCCCCCCCCCCCCC (stereo not drawn) [Glycerol distearate] | 11.0 ± 1.4 | 8.0 ± 0.2 | – | –
CCCCCCCC/C=C\CCCCCCCC(=O)OCC(O)CO (stereo not drawn) [Monoolein, Glycerol monooleate] | 8.3 ± 0.4 | 6.3 ± 0.4 | – | –
sorbitan stearic acid ester [SPAN 60] | 17.5 ± 0.4 | 7.9 ± 0.3 | – | –
CCCCCCCC/C=C\CCCCCCCC(=O)OCC [Ethyl oleate] | 11.2 ± 1.3 | 7.9 ± 0.2 | – | –
β-D-galactosidase [β-gal alone] | – | – | not stained | –
sorbitan trioleic acid ester [SPAN 85] | 17.7 ± 1.2 | 5.2 ± 0.4 | – | –
CC(C)=CCC/C(C)=C/CC/C(C)=C/CC/C=C(\C)CC/C=C(\C)CCC=C(C)C [Squalene] | 9.0 ± 0.5 | 5.4 ± 0.4 | – | –
N[C@@H](Cc1ccccc1)C(=O)O [L-Phenylalanine] | 10.7 ± 0.4 | 7.9 ± 0.5 | – | –
CC(=O)Oc1c(C)c(C)c2c(c1C)CCC(C)(CCC[C@H](C)CCC[C@H](C)CCCC(C)C)O2 (mixture of isomers) [α-Tocopherol acetate, DL-α-tocopherol acetate] | 7.0 ± 2.1 | 5.9 ± 0.2 | – | –
sorbitan monooleate [SPAN 80] | 10.0 ± 0.7 | 5.1 ± 0.5 | – | –

Compound | Hydrophobic material only Leakage (%) ([1]; pH 5.0) | Hydrophobic material only Leakage (%) ([1]; pH 7.4) | staining of cells by β-gal enzymatic activity (cytosolic delivery) [2] | localisation of fluorescence-labeled peptide in cells (cytosolic delivery) [3]
CCCCCCCCCCCCO [1-Dodecanol] | 9.1 ± 0.8 | 7.9 ± 0.2 | – | –
sorbitan palmitic acid ester [SPAN 40] | 20.8 ± 1.4 | 14.9 ± 0.8 | – | –
CCCCCCCCCCCC(=O)O [Lauric acid] | 14.2 ± 0.4 | 6.2 ± 0.4 | – | –
CCCCCCCCCCCCCC(=O)OCC(O)CO (stereo not drawn) [Monomyristin, Glycerol monomyristate] | 5.4 ± 0.1 | 3.8 ± 0.3 | – | –
CCCCCCCCCCCCCCCCO [1-Hexadodecanol, 1-Hexadecanol] | 11.0 ± 0.5 | 9.0 ± 0.9 | – | –
CCCCO [1-Butanol] | 11.1 ± 0.5 | 8.8 ± 0.1 | – | –
sorbitan monolaurate [SPAN 20] | 10.1 ± 0.4 | 5.7 ± 0.7 | – | –
CCCCCC(=O)OCC(COC(=O)CCCCC)OC(=O)CCCCC [Tricaproin, tricaproin] | 8.4 ± 0.9 | 6.9 ± 0.9 | – | –
CCCCCCCC/C=C\CCCCCCCC(=O)OCC(CO)OC(=O)CCCCCCC/C=C\CCCCCCCC (stereo not drawn) [Glycerol dioleate] | 7.4 ± 0.6 | 7.2 ± 0.5 | – | –
CCCCCCCC(=O)OCC(O)CO (stereo not drawn) [Monocaprylin, Glycerol monocaprylate] | 8.5 ± 0.4 | 4.9 ± 1.8 | – | –
CCCCCCCCCC(=O)OCC(O)CO (stereo not drawn) [Monocaprin, Glycerol monocaprate] | 8.1 ± 0.2 | 4.0 ± 2.6 | – | –
CC(C)CCCC(C)CCCC(C)CCCCC(C)CCCC(C)CCCC(C)C (stereo not drawn) [Squalane, squalane] | 9.4 ± 0.5 | 7.8 ± 0.6 | – | –
CCCCCCCC/C=C\CCCCCCCC(=O)[O-].[Na+] [Oleic acid, Sodium oleate] | 76.0 ± 2.3 | 2.2 ± 0.1 | – | –
Cyclodextrin | 9.0 ± 0.7 | 6.3 ± 0.6 | – | –
fluorescence-labeled peptide alone: Fluorescence-labeled peptide: OVA257-264-Rh | – | – | – | remained in the endosome
O=C(OCc1ccccc1)c1ccccc1 [Benzyl benzoate] | 9.7 ± 0.5 | 7.3 ± 2.0 | – | –
CCCCCCCCCCCC(=O)OCC(O)CO (stereo not drawn) [Monolaurin, Glycerol monolaurate] | 5.6 ± 0.4 | 3.6 ± 0.3 | – | –
OC[C@H]1O[C@@H](O[C@H]2[C@H](O)[C@@H](O)C(O)O[C@@H]2CO)[C@H](O)[C@@H](O)[C@H]1O (stereo partly drawn) [Lactose] | 8.9 ± 0.2 | 6.1 ± 0.2 | – | –
CCCCCCCCO [1-Octanol] | 11.7 ± 0.1 | 9.0 ± 0.3 | – | –
CCCCCCCCCCCC(=O)OCC [Ethyl laurate] | 11.9 ± 1.2 | 8.7 ± 0.9 | – | –

From US10765751B2, “pH sensitive carrier and preparation method thereof, and pH sensitive drug and pH sensitive drug composition each containing the carrier, and method for treating or preventing diseases using the same” (TERUMO KABUSHIKI KAISHA, priority 2012, dated 2020)
